Assay results from paper PMC3848336, “Aurora Isoform Selectivity: Design and Synthesis of Imidazo[4,5-b]pyridine Derivatives as Highly Selective Inhibitors of Aurora-A Kinase in Cells” (Journal of Medicinal Chemistry, 2013).
Several values for one entry are separate records, joined by “and”; a condition that tells them apart may be missing. Equal entries are not always repeated.

Assays:
In vivo mouse PK = conditions: plasma, mouse (female Balb/C), 5 mg kg^–1
Experimental: (§1) Mice (female Balb/C) were dosed po or iv with 28c (5 mg kg^–1) in 10% DMSO and 5% Tween 20 in saline. After administration, the mice were sacrificed at 5, 15, and 30 min and 1, 2, 4, 6, and 24 h. Blood was removed by cardiac puncture and centrifuged to obtain plasma samples. The plasma samples (100 μL) were added to the analytical internal standard (IS; olomoucine), followed by protein precipitation with 300 μL of methanol. Following centrifugation (1200g, 30 min, 4 °C), the resulting supernatants were analyzed for 28c levels by LC/MS using a reversed-phase X-Bridge C18 (Waters, 50 × 2.1 mm) analytical column and positive ion mode ESI MRM on a Waters 2795 liquid chromatography system coupled to a Quattro Ultima triple-quadrupole mass spectrometer (Waters).
as §1, with “40f” for “28c”, “The plasma samples (100 μL) were added to the analytical internal standard (IS; olomoucine), followed by protein precipitation with 300 μL of methanol.” left out, “Polar RP (Phenomenex,” for “X-Bridge C18 (Waters,”, “2” for “2.1”

ASK1 = ASK1 (Homo sapiens, UniProt Q99683); experiment: Kinase selectivity profiling; format: biochemical; conditions: 110-kinase panel
Source text: (§2) Compound 28c was profiled against a panel of 110 kinases at the International Centre for Protein Kinase Profiling, Division of Signal Transduction Therapy, University of Dundee. Compound 40f was profiled against a panel of 50 kinases (MRC-PPU Express Screen) also at the International Centre for Protein Kinase Profiling.

BRSK1 = BRSK1 (Homo sapiens, UniProt Q8TDC3); experiment: Kinase selectivity profiling; format: biochemical; conditions: 110-kinase panel
Source text: as §2

CDK2-Cyclin A = CDK2-Cyclin A (Homo sapiens, UniProt P24941); experiment: Kinase selectivity profiling; format: biochemical; conditions: 110-kinase panel, read-out: % activity remaining, CDK22Cyclin A
Source text: as §2

CHK1 = CHK1 (Homo sapiens, UniProt O14757); experiment: Kinase selectivity profiling; format: biochemical; conditions: 110-kinase panel
Chain of CHK1 (O14757 whole entry): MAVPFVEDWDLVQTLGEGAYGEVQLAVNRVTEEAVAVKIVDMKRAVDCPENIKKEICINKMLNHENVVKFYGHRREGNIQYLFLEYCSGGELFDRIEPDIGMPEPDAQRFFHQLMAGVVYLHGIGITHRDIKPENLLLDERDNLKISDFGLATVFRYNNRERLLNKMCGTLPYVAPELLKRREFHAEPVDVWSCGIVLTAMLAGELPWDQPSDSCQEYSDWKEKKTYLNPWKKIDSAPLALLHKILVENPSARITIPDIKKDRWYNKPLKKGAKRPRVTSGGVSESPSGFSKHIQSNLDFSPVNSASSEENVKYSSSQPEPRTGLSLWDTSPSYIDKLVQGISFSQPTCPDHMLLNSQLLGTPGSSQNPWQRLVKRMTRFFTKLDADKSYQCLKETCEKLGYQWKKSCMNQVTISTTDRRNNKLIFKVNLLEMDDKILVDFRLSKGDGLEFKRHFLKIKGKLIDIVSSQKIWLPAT
Source text: as §2

CK1 = CK1 (Homo sapiens, UniProt P48730); experiment: Kinase selectivity profiling; format: biochemical; conditions: 110-kinase panel
Chain of CK1 (P48730 whole entry): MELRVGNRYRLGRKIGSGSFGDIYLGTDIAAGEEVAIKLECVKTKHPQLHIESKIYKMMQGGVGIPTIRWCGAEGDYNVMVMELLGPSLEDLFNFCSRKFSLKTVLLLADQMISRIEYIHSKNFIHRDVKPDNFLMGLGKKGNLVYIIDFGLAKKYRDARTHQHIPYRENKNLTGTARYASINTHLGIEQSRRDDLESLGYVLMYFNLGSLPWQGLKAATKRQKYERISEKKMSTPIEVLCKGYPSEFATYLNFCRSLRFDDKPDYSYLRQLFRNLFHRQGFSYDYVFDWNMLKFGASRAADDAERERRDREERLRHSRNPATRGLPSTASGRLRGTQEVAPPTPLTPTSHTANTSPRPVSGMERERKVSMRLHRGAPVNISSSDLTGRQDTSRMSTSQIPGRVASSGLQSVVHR
Source text: as §2

DYRK2 = DYRK2 (Homo sapiens, UniProt Q92630); experiment: Kinase selectivity profiling; format: biochemical; conditions: 110-kinase panel
Source text: as §2

EF2K = EF2K (Homo sapiens, UniProt O00418); experiment: Kinase selectivity profiling; format: biochemical
Source text: as §2

ERK2 = ERK2 (Homo sapiens, UniProt P28482); experiment: Kinase selectivity profiling; format: biochemical; conditions: 110-kinase panel
Source text: as §2

ERK8 = ERK8 (Homo sapiens, UniProt Q8TD08); experiment: Kinase selectivity profiling; format: biochemical; conditions: 110-kinase panel
Source text: as §2

GSK3b = GSK3b (Homo sapiens, UniProt P49841); experiment: Kinase selectivity profiling; format: biochemical
Chain of GSK3b (P49841 whole entry): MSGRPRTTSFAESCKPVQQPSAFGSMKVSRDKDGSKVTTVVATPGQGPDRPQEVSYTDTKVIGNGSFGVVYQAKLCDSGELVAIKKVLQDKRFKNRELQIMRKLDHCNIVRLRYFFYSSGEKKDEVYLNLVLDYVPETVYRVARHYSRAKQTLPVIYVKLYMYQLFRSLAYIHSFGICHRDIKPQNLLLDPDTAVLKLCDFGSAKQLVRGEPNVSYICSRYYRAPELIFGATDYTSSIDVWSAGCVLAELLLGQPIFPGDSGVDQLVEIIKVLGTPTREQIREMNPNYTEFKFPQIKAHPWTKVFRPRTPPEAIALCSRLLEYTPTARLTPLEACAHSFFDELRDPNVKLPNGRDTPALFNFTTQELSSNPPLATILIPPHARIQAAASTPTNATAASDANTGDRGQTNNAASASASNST
Source text: as §2

HIPK1 = HIPK1 (Homo sapiens, UniProt Q86Z02); experiment: Kinase selectivity profiling; format: biochemical; conditions: 110-kinase panel
Source text: as §2

HIPK3 = HIPK3 (Homo sapiens, UniProt Q9H422); experiment: Kinase selectivity profiling; format: biochemical; conditions: 110-kinase panel
Chain of HIPK3 (Q9H422 whole entry): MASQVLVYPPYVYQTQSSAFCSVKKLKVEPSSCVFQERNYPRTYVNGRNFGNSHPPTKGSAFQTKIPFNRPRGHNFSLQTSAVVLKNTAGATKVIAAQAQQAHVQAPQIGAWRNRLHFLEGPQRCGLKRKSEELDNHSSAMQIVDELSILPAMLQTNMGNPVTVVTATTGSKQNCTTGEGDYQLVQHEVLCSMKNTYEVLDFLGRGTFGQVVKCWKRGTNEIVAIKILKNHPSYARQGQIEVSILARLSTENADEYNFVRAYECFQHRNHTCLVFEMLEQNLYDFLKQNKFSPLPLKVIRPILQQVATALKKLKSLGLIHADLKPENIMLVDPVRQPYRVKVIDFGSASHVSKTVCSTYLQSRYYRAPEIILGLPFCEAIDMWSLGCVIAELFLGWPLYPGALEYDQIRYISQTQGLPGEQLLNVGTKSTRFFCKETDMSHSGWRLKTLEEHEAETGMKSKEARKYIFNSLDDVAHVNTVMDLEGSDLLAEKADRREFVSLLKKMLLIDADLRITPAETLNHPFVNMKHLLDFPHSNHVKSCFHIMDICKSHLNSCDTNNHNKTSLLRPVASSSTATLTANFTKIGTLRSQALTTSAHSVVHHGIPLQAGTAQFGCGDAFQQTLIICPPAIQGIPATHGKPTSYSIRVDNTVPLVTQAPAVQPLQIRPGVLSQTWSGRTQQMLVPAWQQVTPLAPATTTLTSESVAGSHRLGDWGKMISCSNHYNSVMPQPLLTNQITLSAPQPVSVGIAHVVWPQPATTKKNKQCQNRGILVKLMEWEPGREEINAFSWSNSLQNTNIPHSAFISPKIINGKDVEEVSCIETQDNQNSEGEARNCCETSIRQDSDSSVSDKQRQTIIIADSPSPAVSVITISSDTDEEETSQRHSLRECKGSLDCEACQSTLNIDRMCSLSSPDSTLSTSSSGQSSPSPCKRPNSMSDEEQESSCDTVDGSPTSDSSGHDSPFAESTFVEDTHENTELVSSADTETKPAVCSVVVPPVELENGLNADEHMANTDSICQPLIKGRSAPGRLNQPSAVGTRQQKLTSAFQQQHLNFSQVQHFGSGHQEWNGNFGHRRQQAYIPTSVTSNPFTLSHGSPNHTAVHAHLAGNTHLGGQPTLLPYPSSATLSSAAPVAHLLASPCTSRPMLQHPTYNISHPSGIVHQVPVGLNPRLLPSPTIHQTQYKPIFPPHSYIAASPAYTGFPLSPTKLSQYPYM
Source text: as §2

IKKb = IKKb (Homo sapiens, UniProt O14920); experiment: Kinase selectivity profiling; format: biochemical; conditions: 110-kinase panel
Source text: as §2

IKKe = IKKe (Homo sapiens, UniProt Q14164); experiment: Kinase selectivity profiling; format: biochemical; conditions: 110-kinase panel
Source text: as §2

IR = IR (Homo sapiens, UniProt P06213); experiment: Kinase selectivity profiling; format: biochemical; conditions: 110-kinase panel
Source text: as §2

IRR = IRR (Homo sapiens, UniProt P14616); experiment: Kinase selectivity profiling; format: biochemical; conditions: 110-kinase panel
Source text: as §2

JNK3 = JNK3 (Homo sapiens, UniProt P53779); experiment: Kinase selectivity profiling; format: biochemical; conditions: 110-kinase panel
Source text: as §2

MAPKAP-K3 = MAPKAP-K3 (Homo sapiens, UniProt Q16644); experiment: Kinase selectivity profiling; format: biochemical; conditions: 110-kinase panel, read-out: % activity remaining, MAPKAP2K3
Source text: as §2

MARK4 = MARK4 (Homo sapiens, UniProt Q96L34); experiment: Kinase selectivity profiling; format: biochemical; conditions: 110-kinase panel
Chain of MARK4 (Q96L34 whole entry): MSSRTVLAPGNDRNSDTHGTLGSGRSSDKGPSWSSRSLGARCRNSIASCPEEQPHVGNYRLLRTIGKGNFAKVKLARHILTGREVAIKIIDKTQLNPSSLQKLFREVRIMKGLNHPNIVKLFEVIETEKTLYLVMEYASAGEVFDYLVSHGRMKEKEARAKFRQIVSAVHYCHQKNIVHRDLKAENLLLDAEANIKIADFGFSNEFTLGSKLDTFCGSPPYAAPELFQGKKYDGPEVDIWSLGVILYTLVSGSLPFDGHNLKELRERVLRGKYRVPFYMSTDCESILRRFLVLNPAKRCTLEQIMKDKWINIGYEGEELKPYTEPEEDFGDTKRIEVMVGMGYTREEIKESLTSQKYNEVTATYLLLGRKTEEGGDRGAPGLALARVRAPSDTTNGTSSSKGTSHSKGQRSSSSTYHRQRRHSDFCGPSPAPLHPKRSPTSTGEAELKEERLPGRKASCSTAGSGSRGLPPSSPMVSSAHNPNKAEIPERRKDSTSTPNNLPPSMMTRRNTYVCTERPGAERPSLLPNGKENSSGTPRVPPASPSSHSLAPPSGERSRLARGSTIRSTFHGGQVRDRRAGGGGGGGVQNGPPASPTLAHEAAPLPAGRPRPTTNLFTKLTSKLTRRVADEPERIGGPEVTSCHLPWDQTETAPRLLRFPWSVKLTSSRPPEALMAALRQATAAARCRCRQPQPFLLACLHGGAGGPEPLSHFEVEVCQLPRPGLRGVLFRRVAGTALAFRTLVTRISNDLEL
Source text: as §2

MINK1 = MINK1 (Homo sapiens, UniProt Q8N4C8); experiment: Kinase selectivity profiling; format: biochemical; conditions: 110-kinase panel
Source text: as §2

MKK2 = MKK2 (Homo sapiens, UniProt P36507); experiment: Kinase selectivity profiling; format: biochemical; conditions: 110-kinase panel
Source text: as §2

PAK2 = PAK2 (Homo sapiens, UniProt Q13177); experiment: Kinase selectivity profiling; format: biochemical; conditions: 110-kinase panel
Chain of PAK2 (Q13177 whole entry): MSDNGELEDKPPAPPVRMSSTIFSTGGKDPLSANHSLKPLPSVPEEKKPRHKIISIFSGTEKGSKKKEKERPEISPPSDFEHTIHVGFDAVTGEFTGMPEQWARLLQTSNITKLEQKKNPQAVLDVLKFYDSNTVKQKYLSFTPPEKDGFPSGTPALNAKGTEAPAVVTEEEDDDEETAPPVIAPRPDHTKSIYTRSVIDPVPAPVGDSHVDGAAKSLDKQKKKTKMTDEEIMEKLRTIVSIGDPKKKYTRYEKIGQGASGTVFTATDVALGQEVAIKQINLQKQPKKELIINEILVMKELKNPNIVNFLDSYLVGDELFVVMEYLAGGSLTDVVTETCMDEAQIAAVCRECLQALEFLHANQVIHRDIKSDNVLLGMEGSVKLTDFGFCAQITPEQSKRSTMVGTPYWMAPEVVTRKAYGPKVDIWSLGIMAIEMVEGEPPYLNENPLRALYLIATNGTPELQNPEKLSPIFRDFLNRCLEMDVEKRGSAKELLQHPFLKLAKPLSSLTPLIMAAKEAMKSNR
Source text: as §2

PAK5 = PAK5 (Homo sapiens, UniProt Q9P286); experiment: Kinase selectivity profiling; format: biochemical; conditions: 110-kinase panel
Source text: as §2

PAK6 = PAK6 (Homo sapiens, UniProt Q9NQU5); experiment: Kinase selectivity profiling; format: biochemical; conditions: 110-kinase panel
Source text: as §2

PDK1 = PDK1 (Homo sapiens, UniProt O15530); experiment: Kinase selectivity profiling; format: biochemical
Chain of PDK1 (O15530 whole entry): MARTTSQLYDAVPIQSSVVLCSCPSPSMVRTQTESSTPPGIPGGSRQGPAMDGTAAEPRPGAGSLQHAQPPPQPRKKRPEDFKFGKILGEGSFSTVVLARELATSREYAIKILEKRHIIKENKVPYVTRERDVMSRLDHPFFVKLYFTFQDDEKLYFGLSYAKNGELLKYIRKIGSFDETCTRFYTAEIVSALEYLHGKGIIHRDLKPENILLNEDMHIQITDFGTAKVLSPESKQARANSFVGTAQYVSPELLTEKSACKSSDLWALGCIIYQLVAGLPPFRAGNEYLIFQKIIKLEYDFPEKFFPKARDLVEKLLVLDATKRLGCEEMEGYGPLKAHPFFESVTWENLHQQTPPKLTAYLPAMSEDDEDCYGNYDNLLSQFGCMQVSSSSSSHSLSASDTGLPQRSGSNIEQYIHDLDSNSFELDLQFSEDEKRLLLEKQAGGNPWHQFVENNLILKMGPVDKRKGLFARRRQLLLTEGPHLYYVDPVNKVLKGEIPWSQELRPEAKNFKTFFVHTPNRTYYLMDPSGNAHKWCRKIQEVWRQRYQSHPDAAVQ
Source text: as §2

PIM1 = PIM1 (Homo sapiens, UniProt P11309); experiment: Kinase selectivity profiling; format: biochemical
Chain of PIM1 (P11309 whole entry): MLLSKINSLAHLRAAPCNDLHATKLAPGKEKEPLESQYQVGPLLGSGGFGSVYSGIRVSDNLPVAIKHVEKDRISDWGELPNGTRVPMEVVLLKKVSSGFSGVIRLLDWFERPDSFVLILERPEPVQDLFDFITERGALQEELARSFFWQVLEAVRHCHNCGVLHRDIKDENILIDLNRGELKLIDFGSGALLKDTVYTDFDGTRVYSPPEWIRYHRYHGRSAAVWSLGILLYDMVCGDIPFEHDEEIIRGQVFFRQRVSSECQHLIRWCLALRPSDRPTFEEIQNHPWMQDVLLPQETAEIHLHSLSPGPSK
Source text: as §2

PKA = PKA (Homo sapiens, UniProt P17612); experiment: Kinase selectivity profiling; format: biochemical
Source text: as §2

PKCz = PKCz (Homo sapiens, UniProt Q05513); experiment: Kinase selectivity profiling; format: biochemical; conditions: 110-kinase panel
Source text: as §2

SYK = SYK (Homo sapiens, UniProt P43405); experiment: Kinase selectivity profiling; format: biochemical
Source text: as §2

p38b MAPK = p38b MAPK (Homo sapiens, UniProt Q15759); experiment: Kinase selectivity profiling; format: biochemical; conditions: 110-kinase panel
Source text: as §2

p38g MAPK = p38g MAPK (Homo sapiens, UniProt P53778); experiment: Kinase selectivity profiling; format: biochemical; conditions: 110-kinase panel
Source text: as §2

AMPK (hum) = experiment: Kinase selectivity profiling; format: biochemical, human; conditions: 1 µM; 50-kinase panel (MRC-PPU Express Screen)
Source text: as §2

[1] = 50-kinase panel (MRC-PPU Express Screen)

Cc1nn(C)cc1-c1nc2c(Oc3ccc(C(=O)Nc4ccccc4)cc3)c(Cl)cnc2[nH]1 [compound 28c, 4-((6-Chloro-2-(1,3-dimethyl-1H-pyrazol-4-yl)-3H-imidazo[4,5-b]pyridin-7-yl)oxy)-N-phenylbenzamide]
clearance (In vivo mouse PK): 0.883 mL/min and 44.2 mL/min/kg | Vd (In vivo mouse PK; read-out: volume of distribution): 0.036 L | remaining activity at 1 µM (ASK1): 119% | remaining activity at 1 µM (BRSK1): 109% | remaining activity at 1 µM (CDK2-Cyclin A): 58% | remaining activity at 1 µM (CHK1): 94% | remaining activity at 1 µM (CK1): 86% | remaining activity at 1 µM (DYRK2): 87% | remaining activity at 1 µM (EF2K; 110-kinase panel): 93% | remaining activity at 1 µM (ERK2): 85% | remaining activity at 1 µM (ERK8): 36% | remaining activity at 1 µM (GSK3b; 110-kinase panel): 8% | remaining activity at 1 µM (HIPK1): 102% | remaining activity at 1 µM (HIPK3): 96% | remaining activity at 1 µM (IKKb): 99% | remaining activity at 1 µM (IKKe): 101% | remaining activity at 1 µM (IR): 124% | remaining activity at 1 µM (IRR): 108% | remaining activity at 1 µM (JNK3): 87% | remaining activity at 1 µM (MAPKAP-K3): 92% | remaining activity at 1 µM (MARK4): 85% | remaining activity at 1 µM (MINK1): 75% | remaining activity at 1 µM (MKK2): 94% | remaining activity at 1 µM (PAK2): 102% | remaining activity at 1 µM (PAK5): 56% | remaining activity at 1 µM (PAK6): 101% | remaining activity at 1 µM (PDK1; 110-kinase panel): 87% | remaining activity at 1 µM (PIM1; 110-kinase panel): 99% | remaining activity at 1 µM (PKA; 110-kinase panel): 101% | remaining activity at 1 µM (PKCz): 100% | remaining activity at 1 µM (SYK; 110-kinase panel): 117% | remaining activity at 1 µM (p38b MAPK): 89% | remaining activity at 1 µM (p38g MAPK): 96%

Cc1nn(C)cc1-c1nc2c(Oc3ccc(C(=O)NC4CCC4)cc3)c(Cl)cnc2[nH]1 [compound 40f, 4-((6-Chloro-2-(1,3-dimethyl-1H-pyrazol-4-yl)-3H-imidazo[4,5-b]pyridin-7-yl)oxy)-N-cyclobutylbenzamide]
remaining activity at 1 µM (EF2K; [1]): 100% | remaining activity at 1 µM (GSK3b; [1]): 25% | remaining activity at 1 µM (PDK1; [1]): 86% | remaining activity at 1 µM (PIM1; [1]): 87% | remaining activity at 1 µM (PKA; [1]): 90% | remaining activity at 1 µM (SYK; [1]): 84% | % activity remaining, AMPK (hum) (AMPK (hum)): 85%
